Columns and labels:
Th17 cells = assay: qPCR of gene expression (cyp51, sc4mol, pathogenicity signature) in Th17 cells with exogenous fatty acid; type: cell-based, mouse
Rorγt [1] = target: T1, Rorγt (Mus musculus, UniProt P51450); assay: Rorγt ChIP-qPCR in Th17 cells; type: cell-based; settings: WT Th17 cells, TGF-β1+IL-6 96h; 10 μM fatty acid added at day 0
T1 construct: expressed in transfected cells; host or cells: EL4 cells stably transfected with Rorγt vector
T1 sequence (P51450 1-495 isoform P51450-2): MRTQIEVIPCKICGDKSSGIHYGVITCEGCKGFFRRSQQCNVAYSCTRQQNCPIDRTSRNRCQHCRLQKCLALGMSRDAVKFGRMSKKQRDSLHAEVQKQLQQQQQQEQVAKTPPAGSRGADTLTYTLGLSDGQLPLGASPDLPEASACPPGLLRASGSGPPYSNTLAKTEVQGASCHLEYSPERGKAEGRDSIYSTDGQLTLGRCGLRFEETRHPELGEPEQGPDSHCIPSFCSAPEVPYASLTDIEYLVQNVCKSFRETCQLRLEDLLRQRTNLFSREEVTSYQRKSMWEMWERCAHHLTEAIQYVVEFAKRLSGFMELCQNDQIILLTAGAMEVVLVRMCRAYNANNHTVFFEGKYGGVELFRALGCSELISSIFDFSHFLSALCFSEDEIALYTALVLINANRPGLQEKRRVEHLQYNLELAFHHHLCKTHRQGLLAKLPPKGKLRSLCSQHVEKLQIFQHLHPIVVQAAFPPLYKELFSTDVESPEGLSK
Experimental: (FIG. 18A, FIG. 18B) Rorγt ChIP-PCR analyses in WT and CD5L−/− Th17 cells. WT, CD5L−/− and Rorγt−/− Th17 cells were differentiated with TGF-1+IL-6 for 96h. Enrichment of Rorγt binding to genomic regions of Il17 (FIG. 18A) and Il10 (FIG. 18B) is measured using qPCR. […] Three independent experiments were performed.

Rorγt [2] = target: T1, Rorγt; assay: Dual luciferase reporter assay of Rorγt transcriptional activity in EL4 cells; type: cell-based; settings: in the presence of an agonistic Rorγt ligand
Experimental: Cells and supernatant were harvested at 96 hours and subjected to MS/LC. Three independent mouse experiments were performed. […] All ChIP and luciferase assay are representative of at least 3 independent experiments.
Three independent experiments were performed.

[3] = mice fed with a diet rich in PUFA (Monk et al., 2012, 2013); cited from earlier work
[4] = Th17 cells differentiated with TGF-β1+IL-6

Rorγt binding at Il17 and Il23r loci (ChIP-PCR) (Rorγt [1]): decreased such binding
Il10 transactivation (Rorγt [2]): enhanced Il10 transactivation
Compound: CCCCC/C=C\C/C=C\C/C=C\C/C=C\CCCC(=O)O [PUFA, arachidonic acid]
expression of cyp51 and sc4mol mRNA (Th17 cells; CD5L−/− Th17 cells (TGF-β1+IL-6), fatty acid 25 uM added at 48h, analyzed at 96h): abolished the increased expression of the enzymes
Il22 expression (qPCR) (Th17 cells; [4]): increased
effector molecule expression of the pathogenicity signature (Il10, Il23r, Ccl5, Csf2, Lag3; qPCR) (Th17 cells; [4]): reciprocally regulated
Rorγt binding to the Il10 CNS-9 locus (ChIP-PCR) (Rorγt [1]): increased Rorγt binding to the Il10 CNS-9 locus
Rorγt-mediated Il23r transactivation (Rorγt [2]): inhibited Rorγt-mediated Il23r transactivation
severity of chronic colitis and Th17 cell polarization [3]: reduced severity of chronic colitis and Th17 cell polarization

Reference: patent US11427869B2, “T cell balance gene expression, compositions of matters and methods of use thereof” (THE BROAD INSTITUTE, INC., priority 2015, dated 2022)
